Key:
LTB4 receptor = test: TXB2 release from guinea pig eosinophils stimulated with LTB4 (LTB4 receptor antagonist activity); assay type: cell-based; details: 10^−3 M test compound (37.5 μl) added to 300 μl cell suspension, then 10^−7 M LTB4 (37.5 μl), 37° C. 15 min, positive control 100, negative control 0, N.D. = TXB2 concentration at measurement limit or less
Protocol: The LTB4 receptor antagonist activity of the test compound was examined using, as an index, thromboxane B2 (TXB2) released when stimulating eosinophil of guinea pig with LTB4.
Based on the method described in Japanese Journal of Pharmacology, vol. 70, p. 337-345 (1996) etc., eosinophils of guinea pig were prepared. A cell suspension (300 μl, 1.25×10^6 cells/ml) was placed in a 5 ml polypropylene test tube and, after incubation at 37° C. for 5 min., 10^−3 M test compound (37.5 μl) dissolved in 0.1% DMSO aqueous solution was added and the cells were continuously cultured for 5 min. Then, 10^−7 M LTB4 (37.5 μl) was added to induce the reaction and the cells were incubated at 37° C. for 15 min. The reaction was quenched in ice water, and the culture was centrifuged at 4° C., 3000 rpm for 10 min. The obtained supernatant was prepared as a sample for TXB2 measurement, and preserved at −80° C. before use for the measurement. The quantitation of TXB2 was performed using a TXB2 enzyme immunoassay kit (manufactured by Cayman Chemical Company). The release ratio (%) of TXB2 from the eosinophils was determined by the following formula: release ratio (%) of TXB2=[(average value of test compound administration group−average value of negative control group)/(average value of positive control group−average value of negative control group)]×100
As used herein, the positive control group means a group to which stimulation with LTB4 was applied but the same volume of a medium was given instead of the test compound, and the negative control group means a group to which stimulation with LTB4 was not applied, the same volume of a medium was given instead of LTB4, and the same volume of a medium was given instead of the test compound. When the release ratio of TXB2 is smaller than 0, it means that the measured TXB2 concentration was lower than that of the negative control group. When the TXB2 concentration in the sample was the measurement limit or less, N.D. is indicated.

human BLT2 = biological target: T1, human BLT2 (Homo sapiens, UniProt Q9NPC1); test: LTB4-induced increase in intracellular calcium ion concentration in CHO cells expressing human BLT2 (Fluo-3, Flexstation); assay type: cell-based; details: compound 10 μM final, LTB4 100 nM final
T1 construct: expressed in transfected cells; host or cells: CHO cells
T1 sequence (Q9NPC1 1-358): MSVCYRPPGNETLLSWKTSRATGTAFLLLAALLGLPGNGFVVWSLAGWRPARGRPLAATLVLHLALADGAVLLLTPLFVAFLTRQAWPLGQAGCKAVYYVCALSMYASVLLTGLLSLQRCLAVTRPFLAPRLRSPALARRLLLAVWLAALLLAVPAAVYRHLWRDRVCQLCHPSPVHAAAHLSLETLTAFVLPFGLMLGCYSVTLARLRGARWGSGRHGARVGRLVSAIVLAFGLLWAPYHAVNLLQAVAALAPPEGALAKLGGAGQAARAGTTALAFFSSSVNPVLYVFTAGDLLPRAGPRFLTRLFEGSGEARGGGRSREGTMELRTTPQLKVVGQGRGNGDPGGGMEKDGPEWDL
Protocol: CHO cells habouring a gene encoding human BLT1 or human BLT2 and functionally expressing the receptor were seeded in a 96 well plate at 4×10^4 cells/well, and cultured at 37° C. for 60 min. The culture supernatant was removed and a loading buffer (100 μl) containing 4 μM Fluo-3 (manufactured by Dojindo), 0.04% pluoronic acid (manufactured by Sigma) and 1% serum was added. The mixture was culture at 37° C. for 30 min to introduce Fluo-3 into the cells. After culture, the cells were washed with a buffer, and a buffer containing various compounds (10 μM (final concentration)) was added, and then 100 nM (final concentration) of LTB4 was added. Changes in the intracellular calcium ion concentration were measured with Flexstation (manufactured by Molecular Devices Corporation) as increase in the fluorescence intensity (area under a curve in a time-course graph of fluorescence intensity in 10 min measurement). As a positive control of BLT1 and BLT2 antagonists, ZK158252 was used.

SMILES | Amount of TXB2 release (%) (LTB4 receptor) | Suppressive effect on increase in intracellular calcium ion concentration compared with ZK158252 (in words) (human BLT2) | melting point [°C]
CCOC(=O)CCCOc1cccc2cc(/C(C)=C\C(=O)Nc3ccc(OC)c(OC)c3)oc12 [Example 46, Ethyl (Z)-4-{2-[2-(3,4-dimethoxyphenylcarbamoyl)-1-methylvinyl]benzofuran-7-yloxy}butyrate] | 45.62 | almost of the same level as or not less than that by ZK158252 | 101.5 to 105
C/C(O)=C(\C#N)C(=O)Nc1c(C(=O)c2ccc(Cl)cc2)oc2ccc(Br)cc12 [Example 98, (Z)-N-[5-bromo-2-(4-chlorobenzoyl)benzofuran-3-yl]-2-cyano-3-hydroxy-2-butenamide] |  | almost of the same level as or not less than that by ZK158252 | 263.3 to 265.3
COc1ccc2oc(-c3csc(NC(=O)/C(C#N)=C(/C)O)n3)c(-c3ccc(Cl)cc3)c2c1 [Example 222, (Z)-2-cyano-3-hydroxy-2-butenoic acid {4-[3-(4-chlorophenyl)-5-methoxybenzofuran-2-yl]thiazol-2-yl}amide] |  | almost of the same level as or not less than that by ZK158252 | 229.5 to 231
CCOC(=O)CCCOc1cccc2cc(/C(C)=C/C(=O)N(CC)CC)oc12 [Example 224, Ethyl (E)-4-[2-(2-diethylcarbamoyl-1-methylvinyl)benzofuran-7-yloxy]butyrate] |  | almost of the same level as or not less than that by ZK158252 | 
COc1cccc2cc(/C(Cl)=C/C=C/C(=O)N3CCCCC3)oc12 [Example 144, (2E,4Z)-5-chloro-5-(7-methoxybenzofuran-2-yl)-1-piperidin-1-ylpenta-2,4-dien-1-one] |  | almost of the same level as or not less than that by ZK158252 | 142.2 to 144.4
CC(=O)c1cc2c(/C(C)=C/C(=O)N3CCOCC3)ccc(OC(C)c3ccccc3)c2o1 (centres unmarked) [Example 9, (E)-3-[2-acetyl-7-(1-phenylethoxy)benzofuran-4-yl]-1-morpholino-2-buten-1-one] | 0.68 |  | 173.9 to 175.4
COc1ccc2oc(-c3csc(N=CN(C)C)n3)c(-c3ccc(Cl)cc3)c2c1 [Example 219, N′-{4-[3-(4-chlorophenyl)-5-methoxybenzofuran-2-yl]thiazol-2-yl}-N,N-dimethylformamidine] |  | almost of the same level as or not less than that by ZK158252 | 142.7 to 144.3
COc1cccc(NC(=O)/C=C(\C)c2cc3c(S(=O)(=O)NCCc4ccc(OC)c(OC)c4)ccc(OCCCCl)c3o2)c1 [Example 51, (E)-3-{7-(3-chloropropoxy)-4-[2-(3,4-dimethoxyphenyl)ethylsulfamoyl]benzofuran-2-yl}-N-(3-methoxyphenyl)-2-butenamide] | 38.93 |  | 162.2 to 164.5
C/C=C/C(=O)NC(C)c1cc2cccc(OC)c2o1 (centres unmarked) [Example 130, (E)-[1-(7-methoxybenzofuran-2-yl)ethyl]-2-butenamide] | 35.44 |  | 128.7 to 130.2
COc1ccc(NC(=O)/C=C/c2oc3ccc(OC)cc3c2-c2ccc(Cl)cc2)cc1 [Example 141, (E)-3-[3-(4-chlorophenyl)-5-methoxybenzofuran-2-yl]-N-(4-methoxyphenyl)acrylamide] |  | almost of the same level as or not less than that by ZK158252 | 194 to 195.1
COc1ccc(CCNC(=O)/C=C/C=C(\Cl)c2cc3cc(Br)ccc3o2)cc1OC [Example 55, (2E,4Z)-5-(5-bromobenzofuran-2-yl)-5-chloropenta-2,4-dienoic acid [2-(3,4-dimethoxyphenyl)ethyl]amide] | 53.91 |  | 161.3 to 162.1
CCN(CC)C(=O)/C=C(\C)c1ccc(OCC(=O)c2ccc3c(c2)OCO3)c2oc(C(C)=O)cc12 [Example 13, (E)-3-[2-acetyl-7-(2-benzo[1,3]dioxol-5-yloxoethoxy)benzofuran-4-yl]-N,N-diethyl-2-butenamide] | 31.8 |  | 142 to 144
CC(=O)c1cc2c(/C(C)=C/C(=O)N3CCN(c4ccccc4)CC3)ccc(OC(c3ccccc3)c3ccccc3)c2o1 [Example 6, (E)-3-(2-acetyl-7-benzhydryloxybenzofuran-4-yl)-1-(4-phenylpiperazin-1-yl)-2-buten-1-one] | 38.93 |  | 152 to 160
CCN(CC)C(=O)/C=C(\C)c1ccc(OCCCC(=O)O)c2oc(/C(C)=C/C(=O)O)cc12 [Example 2, (E)-3-[7-(3-carboxypropoxy)-4-(2-diethylcarbamoyl-1-methylvinyl)benzofuran-2-yl]-2-butenoic acid] | 5.77 |  | 199.5 to 201.9
CC(=O)c1cc2c(/C(C)=C/C(=O)N3CCOCC3)ccc(OC(c3ccccc3)c3ccccc3)c2o1 [Example 7, (E)-3-(2-acetyl-7-benzhydryloxybenzofuran-4-yl)-1-morpholino-2-buten-1-one] | 9.89 |  | 167 to 169.3
CCOC(=O)c1oc2ccc(Br)cc2c1NC(=O)/C(C#N)=C(/C)O [Example 97, Ethyl (Z)-5-bromo-3-(2-cyano-3-hydroxy-2-butenoylamino)benzofurane-2-carboxylate] | −0.12 |  | 186.3 to 187.2
CC(=O)c1oc2ccc(Br)cc2c1NC(=O)/C=C/c1ccccc1 [Example 114, (E)-N-(2-acetyl-5-bromobenzofuran-3-yl)-3-phenylacrylamide] | 51.42 |  | 180.2 to 181.1
CCN(CC)C(=O)/C=C(\C)c1cc2cccc(OC(C)C)c2o1 [Example 33, (E)-3-(7-isopropoxybenzofuran-2-yl)-N,N-diethyl-2-butenamide] | −0.199 | almost of the same level as or not less than that by ZK158252 | 
COc1cccc(NC(=O)/C=C/C=C(\Cl)c2cc3cccc(OC)c3o2)c1 [Example 57, (2E,4Z)-5-chloro-5-(7-methoxybenzofuran-2-yl)penta-2,4-dienoic acid (3-methoxyphenyl)amide] | 78.01 |  | 194.3 to 197.3
C/C=C/C(=O)Nc1c(C#N)oc2ccc(Br)cc12 [Example 117, (E)-N-(5-bromo-2-cyanobenzofuran-3-yl)-2-butenamide] | 54.95 |  | 206.5 to 208.2
CC(NC(=O)/C=C/c1ccccc1)c1cc2cccc(OCCCCl)c2o1 (centres unmarked) [Example 131, (E)-N-{1-[7-(3-chloropropoxy)benzofuran-2-yl]ethyl}-3-phenylacrylamide] | 2.14 |  | 132.2 to 139.7
COc1cccc2cc(/C(Cl)=C/C=C/C(=O)N(C(C)C)C(C)C)oc12 [Example 142, (2E,4Z)-5-chloro-5-(7-methoxybenzofuran-2-yl)penta-2,4-dienoic acid diisopropylamide] |  | almost of the same level as or not less than that by ZK158252 | 140.1 to 142

From patent publication US7638540B2, “Benzofuran compound and medicinal composition containing the same” (The New Industry Research Organization, priority 2003, dated 2009)
